Experimental data from patent EP1247803A2, “Indolinone compounds suitable for modulation of protein kinases” (Sugen, Inc., priority 1996, dated 1998).

Experiments:
PDGF-R = PDGF-R (Homo sapiens, UniProt P09619); test: PDGF-R ELISA; assay type: cell-based
From the text: A PDGF-R ELISA is described in International Patent Publication No. WO 96/40116, published December 19, 1996 by Tang et al.

MET = MET biochemical kinase assay; design: species or system human; concentration or dose not given beside the values
In short: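 Immunocaptured MET autophosphorylation, read colorimetrically (TMB) via HRP anti-phosphotyrosine antibody. Kinase reaction initiated with buffer containing ATP and divalent metals after compound addition to plate-bound receptor from lysates.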

EGFR = target: T1, EGFR (Homo sapiens, UniProt P00533); test: EGFR ELISA assay (in vitro kinase activity, EGFR captured from A431 cell lysate); assay type: biochemical; design: concentration or dose not given beside the values
T1 construct: Add 7 ug A431 cell lysate per well (EGFR source); endogenous in cells; host or cells: A431
In short: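 EGFR from A431 lysate was captured on anti-EGFR antibody-coated plates and preincubated with compounds for 30 min. Autophosphorylation ran 5 min with 3 uM ATP and 5 mM MnCl2 (final), stopped with 20 mM EDTA. Phosphotyrosine was detected by anti-pTyr ELISA with ABTS/H2O2, read at 410 nm.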

T1 sequence (P00533 25-1210): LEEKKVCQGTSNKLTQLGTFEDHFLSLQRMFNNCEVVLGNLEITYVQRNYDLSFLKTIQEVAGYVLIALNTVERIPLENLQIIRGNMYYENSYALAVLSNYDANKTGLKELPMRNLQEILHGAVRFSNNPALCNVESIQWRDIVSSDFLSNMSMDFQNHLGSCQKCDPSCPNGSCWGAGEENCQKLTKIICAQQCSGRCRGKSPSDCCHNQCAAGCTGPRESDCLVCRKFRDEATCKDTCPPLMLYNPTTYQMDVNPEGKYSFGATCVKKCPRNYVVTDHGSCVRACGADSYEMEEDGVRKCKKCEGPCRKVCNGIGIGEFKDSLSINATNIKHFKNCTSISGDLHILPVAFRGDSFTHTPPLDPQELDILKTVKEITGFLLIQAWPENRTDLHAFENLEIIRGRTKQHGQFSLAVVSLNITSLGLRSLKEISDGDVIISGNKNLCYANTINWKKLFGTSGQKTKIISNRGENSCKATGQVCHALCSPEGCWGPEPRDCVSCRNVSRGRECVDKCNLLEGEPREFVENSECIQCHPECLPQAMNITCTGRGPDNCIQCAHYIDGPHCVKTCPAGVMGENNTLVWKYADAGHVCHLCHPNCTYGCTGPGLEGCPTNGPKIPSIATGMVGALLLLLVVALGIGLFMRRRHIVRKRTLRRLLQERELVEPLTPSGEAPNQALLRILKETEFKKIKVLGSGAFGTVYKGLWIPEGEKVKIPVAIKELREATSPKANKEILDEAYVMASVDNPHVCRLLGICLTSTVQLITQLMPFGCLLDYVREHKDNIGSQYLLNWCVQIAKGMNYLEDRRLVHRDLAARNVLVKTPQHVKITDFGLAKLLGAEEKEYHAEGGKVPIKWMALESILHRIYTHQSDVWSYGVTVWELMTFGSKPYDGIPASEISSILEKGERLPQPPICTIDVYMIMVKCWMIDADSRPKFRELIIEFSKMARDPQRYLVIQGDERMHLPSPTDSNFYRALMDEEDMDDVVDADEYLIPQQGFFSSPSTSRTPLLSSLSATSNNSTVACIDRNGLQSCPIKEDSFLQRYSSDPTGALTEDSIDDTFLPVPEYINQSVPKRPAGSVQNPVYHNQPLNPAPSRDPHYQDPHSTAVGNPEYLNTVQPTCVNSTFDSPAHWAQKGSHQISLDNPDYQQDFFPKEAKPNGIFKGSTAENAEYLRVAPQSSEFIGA
Sequence of PDGF-R (P09619 33-1106, species assumed): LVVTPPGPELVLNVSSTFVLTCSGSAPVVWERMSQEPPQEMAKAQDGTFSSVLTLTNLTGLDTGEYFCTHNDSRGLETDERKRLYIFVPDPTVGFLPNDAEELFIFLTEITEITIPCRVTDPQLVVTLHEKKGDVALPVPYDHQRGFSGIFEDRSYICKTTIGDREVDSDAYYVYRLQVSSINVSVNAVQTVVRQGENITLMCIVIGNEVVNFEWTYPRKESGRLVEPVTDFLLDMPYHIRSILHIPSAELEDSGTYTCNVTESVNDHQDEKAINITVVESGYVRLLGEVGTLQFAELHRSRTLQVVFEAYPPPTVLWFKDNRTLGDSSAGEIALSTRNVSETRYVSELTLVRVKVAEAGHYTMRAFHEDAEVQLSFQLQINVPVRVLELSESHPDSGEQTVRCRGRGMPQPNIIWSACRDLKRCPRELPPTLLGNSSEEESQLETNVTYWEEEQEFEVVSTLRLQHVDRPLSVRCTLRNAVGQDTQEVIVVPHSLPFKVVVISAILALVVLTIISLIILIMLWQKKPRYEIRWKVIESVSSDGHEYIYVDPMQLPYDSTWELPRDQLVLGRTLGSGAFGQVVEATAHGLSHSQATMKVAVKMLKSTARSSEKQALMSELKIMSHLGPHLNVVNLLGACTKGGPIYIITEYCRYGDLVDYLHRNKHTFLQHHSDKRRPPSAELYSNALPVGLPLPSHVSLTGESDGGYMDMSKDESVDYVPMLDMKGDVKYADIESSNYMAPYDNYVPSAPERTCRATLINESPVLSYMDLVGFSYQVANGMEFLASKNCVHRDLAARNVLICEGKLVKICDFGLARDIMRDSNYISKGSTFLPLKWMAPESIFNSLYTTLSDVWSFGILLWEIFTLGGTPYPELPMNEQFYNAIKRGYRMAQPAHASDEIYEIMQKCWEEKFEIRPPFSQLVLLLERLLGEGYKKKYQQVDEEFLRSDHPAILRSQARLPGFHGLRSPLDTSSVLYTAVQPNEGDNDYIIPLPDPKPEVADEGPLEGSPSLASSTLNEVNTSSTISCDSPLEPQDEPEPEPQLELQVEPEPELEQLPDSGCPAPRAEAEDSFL

Structure (SMILES)	PDGF Kinase %Inhibition (PDGF-R) [%]	Met Kinase % Inhibition (MET) [%]	Biochem EGFR %Inhibition (EGFR) [%]
CNS(=O)(=O)c1ccc2c(c1)C(=Cc1ccc(C#N)cc1)C(=O)N2 [10727/D09]	7.2	17.9	15.1
CCc1cc(CC)c(C=C2C(=O)Nc3ccc(S(=O)(=O)Nc4ccc(C(F)(F)F)cc4)cc32)[nH]1 [10727/E03]	5.7	28.8	35.5
O=C1Nc2ccc(S(=O)(=O)N3CCOCC3)cc2C1=Cc1cc(O)ccc1O [10727/F10]	9.4	93.4	74.1
O=C1Nc2ccc(CCCl)cc2C1=Cc1cc(O)ccc1O [10727/G10]	10.8	99.2	85.1
COc1ccc(OC)c(C=C2C(=O)Nc3ccc(I)cc32)c1 [10728/B02]	-0.4	61.2	-10.5
O=C1Nc2ccc(I)cc2C1=Cc1c(F)cccc1C(F)(F)F [10728/B09]	-0.4	81.7	31.7
O=C1Nc2ccc(S(=O)(=O)Nc3ccc(C(F)(F)F)cc3)cc2C1=Cc1coc2ccccc2c1=O [10727/E07]	10.1	45.2	7.1
O=C1Nc2ccc(S(=O)(=O)N3CCOCC3)cc2C1=Cc1cc(Cl)cc(Br)c1O [10727/F04]	-10.3	92.0	17.9
COc1cc(N(C)C)ccc1C=C1C(=O)Nc2ccc(I)cc21 [10728/B05]	9.4	60.4	26.9
O=C1Nc2ccc(S(=O)(=O)Nc3ccc(C(F)(F)F)cc3)cc2C1=Cc1ccccc1Sc1ccc(Cl)cc1 [10727/E05]	-7.4	12.1	12.9
O=C1Nc2ccc(S(=O)(=O)N3CCOCC3)cc2C1=Cc1coc2ccccc2c1=O [10727/F07]	2.1	17.9	-8.9
COc1cccc(OC)c1C=C1C(=O)Nc2ccc(I)cc21 [10728/B03]	10.3	74.4	-36.6
CNS(=O)(=O)c1ccc2c(c1)C(=Cc1ccc3c(c1)Cc1ccccc1-3)C(=O)N2 [10728/D06]	5.8	23.2	5.8
COc1cccc(OC)c1C=C1C(=O)Nc2c(Br)cc(Br)cc21 [10728/A03]	-7.9	29.2	-25.8
COc1cc(C=C2C(=O)Nc3c(Br)cc(Br)cc32)cc2c1OCO2 [10728/A11]	-9.3	58.8	-0.6
O=C1Nc2ccc(S(=O)(=O)N3CCOCC3)cc2C1=Cc1ccccc1Sc1ccc(Cl)cc1 [10727/F05]	-3.7	6.0	-9.1
O=C1Nc2ccc(I)cc2C1=Cc1cc(C(F)(F)F)ccc1F [10728/B08]	-6.6	77.0	34.7
O=C(O)COc1ccccc1C=C1C(=O)Nc2c(Br)cc(Br)cc21 [10728/A10]	1.8	77.2	-3.4
CCN(CC)c1ccc(C=C2C(=O)Nc3ccc(S(=O)(=O)Nc4ccc(C(F)(F)F)cc4)cc32)cc1 [10727/E02]	-6.7	28.0	22.4
COc1cc(C=C2C(=O)Nc3ccc(Br)c(C)c32)cc2c1OCO2 [10728/C11]	8.5	45.2	21.8
CCN(CC)c1ccc(C=C2C(=O)Nc3ccc(CCCl)cc32)cc1 [10727/G02]	-20.5	81.5	37.5
CNS(=O)(=O)c1ccc2c(c1)C(=Cc1ccc(N(C)C)cc1OC)C(=O)N2 [10728/D05]	7.2	29.5	12.7
CNS(=O)(=O)c1ccc2c(c1)C(=Cc1c(OC)cccc1OC)C(=O)N2 [10728/D03]	32.0	13.5	10.8
O=C1Nc2ccc(S(=O)(=O)Nc3ccc(C(F)(F)F)cc3)cc2C1=Cc1cc2c(cc1Cl)OCO2 [10727/E06]	9.4	-2.2	-9.3
N#Cc1cccc(C=C2C(=O)Nc3ccc(CCCl)cc32)c1 [10727/G08]	-7.4	21.8	-19.6
CNS(=O)(=O)c1ccc2c(c1)C(=Cc1cc(OC)cc(OC)c1)C(=O)N2 [10728/D04]	26.7	23.1	-1.1
CCN(CC)c1ccc(C=C2C(=O)Nc3ccc(S(=O)(=O)N4CCOCC4)cc32)cc1 [10727/F02]	11.5	52.0	-0.5
COc1cccc(OC)c1C=C1C(=O)Nc2ccc(Br)c(C)c21 [10728/C03]	24.9	16.9	9.7
O=C1Nc2c(Br)cc(Br)cc2C1=Cc1cccc(C(F)(F)F)c1F [10728/A07]	31.1	28.5	59.6
Cc1c(Br)ccc2c1C(=Cc1c(F)cccc1C(F)(F)F)C(=O)N2 [10728/C09]	8.1	31.6	-6.8
